Assay results from patent US20230167088A1, “1-PYRAZINYLPYRAZOLYL-3-OXYALKYL ACIDS AND THEIR DERIVATIVES, AND THEIR USE FOR CONTROL OF UNDESIRED PLANT GROWTH” (BAYER AKTIENGESELLSCHAFT, priority 2020, published 2023).

Legend:
ECHCG [1] = assay: Herbicidal pre-emergence action 2b (doubly sown, 1280 g/ha); assay type: in vivo, Echinochloa crus-galli; details: doubly sown pots, dosage 1280 g/ha, visual scoring after about 3 weeks
Outline: (§1)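 Read-out: visual percentage damage relative to untreated controls, scored after roughly 3 weeks in the greenhouse, where 100% means plants died and 0% equals control. Seeds were sown two species per pot in sandy loam and covered before the compounds, formulated as WP or EC with 0.5% additive, were sprayed onto the soil at 600 L/ha.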

VIOTR [2] = assay: Herbicidal post-emergence action 1a (greenhouse pots, visual rating); assay type: in vivo, Viola tricolor; details: dosage 320 g/ha, visual rating about 3 weeks after treatment
Outline: (§2)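 Weeds and crops sown in sandy loam in greenhouse pots were sprayed post-emergence at the one-leaf stage (2–3 weeks after sowing) with WP or EC formulations plus 0.5% additive at 600 l/ha water, 320 and/or 80 g/ha. About 3 weeks later damage was rated visually against untreated controls (0% = no effect, 100% = dead).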

ALOMY [3] = assay: as above; assay type: in vivo, Alopecurus myosuroides; details: rated visually about 3 weeks after treatment, 100% = plants have died, 0% = like control plants
Outline: as §2

VERPE [4] = assay: Herbicidal pre-emergence action 2a (greenhouse pots, visual scoring); assay type: in vivo, Veronica persica; details: dosage 320 g/ha, visual scoring after about 3 weeks vs untreated controls
Outline: (§3)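 Pots of covered seed were sprayed pre-emergence at 320 and/or 80 g/ha. Roughly three weeks of greenhouse growth preceded visual scoring in percent versus untreated controls.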

DIGSA [5] = assay: as above; assay type: in vivo, Digitaria sanguinalis; details: dosage 320 g/ha, visual scoring after about 3 weeks
Outline: as §3

STEME [6] = assay: Herbicidal post-emergence action 1a (greenhouse pots, visual rating); assay type: in vivo, Stellaria media; details: Dosage 320 g/ha; rated visually about 3 weeks after treatment; 100% = plants have died, 0% = like control plants
Procedure: (§4) [table] a) Seeds of monocotyledonous and dicotyledonous weeds and crop plants are placed in sandy loam in plastic or organic plant pots, covered with soil and cultivated in a greenhouse under controlled growth conditions. 2 to 3 weeks after sowing, the test plants are treated at the one-leaf stage. The compounds of the invention, formulated in the form of wettable powders (WP) or as emulsion concentrates (EC), are then sprayed onto the green parts of the plants as aqueous suspension or emulsion with addition of 0.5% additive at a water application rate of 600 1/ha (converted). After the test plants have been kept in the greenhouse under optimum growth conditions for about 3 weeks, the activity of the preparations is rated visually in comparison to untreated controls. For example, 100% activity=the plants have died, 0% activity=like control plants. Tables A1 to A15 below show the effects of selected compounds of the general formula (I) according to Tables 1 and 2 on various harmful plants and an application rate corresponding to 320 g/ha and/or 80 g/ha, which were obtained by the experimental procedure mentioned above.

ECHCG [7] = assay: Herbicidal post-emergence action 1b (twin sowing, 1280 g/ha); assay type: in vivo, Echinochloa crus-galli; details: dosage 1280 g/ha, visual rating about 3 weeks after treatment
Outline: (§5)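 Sow paired weed species in sandy loam pots and grow in the greenhouse; at the one-leaf stage (2–3 weeks) spray green parts with compound suspension or emulsion containing 0.5% additive at 600 L water/ha; keep about 3 weeks, then score damage visually relative to untreated plants.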

ECHCG [8] = assay: Herbicidal post-emergence action 1a (greenhouse pots, visual rating); assay type: in vivo, Echinochloa crus-galli; details: rated visually about 3 weeks after treatment, 100% = plants have died, 0% = like control plants
Outline: as §2

STEME [9] = assay: Herbicidal post-emergence action 1b (twin sowing, 1280 g/ha); assay type: in vivo, Stellaria media; details: dosage 1280 g/ha, visual rating about 3 weeks after treatment
Outline: as §5

MATIN [10] = assay: Herbicidal post-emergence action 1a (greenhouse pots, visual rating); assay type: in vivo, Matricaria inodora; details: dosage 320 g/ha, visual rating about 3 weeks after treatment
Procedure: as §4

POAAN [11] = assay: Herbicidal post-emergence action 1b (twin sowing, 1280 g/ha); assay type: in vivo, Poa annua; details: dosage 1280 g/ha, visual rating about 3 weeks after treatment
Outline: as §5

VERPE [12] = assay: Herbicidal post-emergence action 1a (greenhouse pots, visual rating); assay type: in vivo, Veronica persica; details: dosage 320 g/ha, visual rating about 3 weeks after treatment
Outline: as §2

POAAN [13] = assay: Herbicidal pre-emergence action 2b (doubly sown, 1280 g/ha); assay type: in vivo, Poa annua; details: doubly sown pots, dosage 1280 g/ha, visual scoring after about 3 weeks
Outline: as §1

PHBPU [14] = assay: Herbicidal post-emergence action 1a (greenhouse pots, visual rating); assay type: in vivo, Pharbitis purpurea; details: visual rating about 3 weeks after treatment
Outline: as §2

AMARE [15] = assay: Herbicidal pre-emergence action 2a (greenhouse pots, visual scoring); assay type: in vivo, Amaranthus retroflexus; details: dosage 320 g/ha, visual scoring after about 3 weeks vs untreated controls
Outline: as §3

STEME [16] = assay: Herbicidal pre-emergence action 2b (doubly sown, 1280 g/ha); assay type: in vivo, Stellaria media; details: doubly sown pots, dosage 1280 g/ha, visual scoring after about 3 weeks
Outline: as §1

MATIN [17] = assay: Herbicidal pre-emergence action 2a (greenhouse pots, visual scoring); assay type: in vivo, Matricaria inodora; details: dosage 320 g/ha, visual scoring after about 3 weeks vs untreated controls
Outline: as §3

AMARE [18] = assay: Herbicidal post-emergence action 1a (greenhouse pots, visual rating); assay type: in vivo, Amaranthus retroflexus; details: dosage 320 g/ha, visual rating about 3 weeks after treatment
Outline: as §2

MATIN [19] = assay: Herbicidal post-emergence action 1b (twin sowing, 1280 g/ha); assay type: in vivo, Matricaria inodora; details: dosage 1280 g/ha, visual rating about 3 weeks after treatment
Outline: as §5

MATIN [20] = assay: Herbicidal pre-emergence action 2b (doubly sown, 1280 g/ha); assay type: in vivo, Matricaria inodora; details: doubly sown pots, dosage 1280 g/ha, visual scoring after about 3 weeks
Outline: as §1

AMARE [21] = assay: as above; assay type: in vivo, Amaranthus retroflexus; details: doubly sown pots, dosage 1280 g/ha, visual scoring after about 3 weeks
Outline: as §1

AVEFA = assay: Herbicidal pre-emergence action 2a (greenhouse pots, visual scoring); assay type: in vivo, Avena fatua; details: dosage 320 g/ha, visual scoring after about 3 weeks
Outline: as §3

VIOTR [22] = assay: as above; assay type: in vivo, Viola tricolor; details: dosage 320 g/ha, visual scoring after about 3 weeks vs untreated controls
Outline: as §3

DIGSA [23] = assay: Herbicidal pre-emergence action 2b (doubly sown, 1280 g/ha); assay type: in vivo, Digitaria sanguinalis; details: doubly sown pots, dosage 1280 g/ha, visual scoring after about 3 weeks
Outline: as §1

ECHCG [24] = assay: Herbicidal pre-emergence action 2a (greenhouse pots, visual scoring); assay type: in vivo, Echinochloa crus-galli; details: dosage 320 g/ha, visual scoring after about 3 weeks
Outline: as §3

SETVI = assay: as above; assay type: in vivo, Setaria viridis; details: dosage 320 g/ha, visual scoring after about 3 weeks vs untreated controls
Outline: as §3

DIGSA [25] = assay: Herbicidal post-emergence action 1b (twin sowing, 1280 g/ha); assay type: in vivo, Digitaria sanguinalis; details: dosage 1280 g/ha, visual rating about 3 weeks after treatment
Outline: as §5

ABUTH = assay: as above; assay type: in vivo, Abutilon theophrasti; details: dosage 1280 g/ha, visual rating about 3 weeks after treatment
Procedure: [table] b) Seeds of mono- and dicotyledonous weed plants are placed in plastic pots in sandy loam soil (twin sowing with one species each of mono- or dicotyledonous weed plants per pot), covered with soil and cultivated in a greenhouse under controlled growth conditions. 2 to 3 weeks after sowing, the test plants are treated at the one-leaf stage. The compounds of the invention, formulated in the form of wettable powders (WP) or as emulsion concentrates (EC), are applied to the green parts of the plants as aqueous suspension or emulsion with addition of 0.5% additive at a water application rate equivalent to 600 litres per hectare. After the test plants have been kept in the greenhouse under optimum growth conditions for about 3 weeks, the activity of the preparations is rated visually in comparison to untreated controls. For example, 100% activity=the plants have died, 0% activity=like control plants. Tables A16 to A21 below show the effects of selected compounds of the general formula (I) according to Tables 1 and 2 on various harmful plants and at an application rate corresponding to 1280 g/ha, which were obtained by the experimental procedure mentioned above.

PHBPU [26] = assay: Herbicidal pre-emergence action 2a (greenhouse pots, visual scoring); assay type: in vivo, Pharbitis purpurea; details: dosage 320 g/ha, visual scoring after about 3 weeks vs untreated controls
Excerpt: [table] a) Seeds of monocotyledonous and dicotyledonous weed plants and crop plants are placed in plastic or organic plant pots and covered with soil. The compounds of the invention, formulated in the form of wettable powders (WP) or as emulsion concentrates (EC), are then applied onto the surface of the covering soil as aqueous suspension or emulsion with addition of 0.5% additive at a water application rate of 600 1/ha (converted). After the treatment, the pots are placed in a greenhouse and kept under good growth conditions for the trial plants. After about 3 weeks, the effect of the preparations is scored visually in comparison with untreated controls as percentages. For example, 100% activity=the plants have died, 0% activity=like control plants. Tables B1 to B15 below show the effects of selected compounds of the general formula (I) according to Tables 1 and 2 on various harmful plants and an application rate corresponding to 320 g/ha and/or 80 g/ha, which were obtained by the experimental procedure mentioned above.

ALOMY [27] = assay: as above; assay type: in vivo, Alopecurus myosuroides; details: dosage 320 g/ha, visual scoring after about 3 weeks
Outline: as §3

LOLRI = assay: as above; assay type: in vivo, Lolium rigidum; details: dosage 320 g/ha, visual scoring after about 3 weeks vs untreated controls
Outline: as §3

Compound | Pre-emergence action at 1280 g/ha against ECHCG in % (ECHCG [1]) [%] | Pre-emergence action against VERPE in % (VERPE [4]) [%] | Post-emergence action at 1280 g/ha against ECHCG in % (ECHCG [7]) [%] | Post-emergence action at 1280 g/ha against STEME in % (STEME [9]) [%] | Post-emergence action at 1280 g/ha against POAAN in % (POAAN [11]) [%] | Pre-emergence action at 1280 g/ha against POAAN in % (POAAN [13]) [%] | Pre-emergence action against AMARE in % (AMARE [15]) [%] | Pre-emergence action at 1280 g/ha against STEME in % (STEME [16]) [%] | Pre-emergence action against MATIN in % (MATIN [17]) [%] | Post-emergence action at 1280 g/ha against MATIN in % (MATIN [19]) [%] | Pre-emergence action at 1280 g/ha against MATIN in % (MATIN [20]) [%] | Pre-emergence action at 1280 g/ha against AMARE in % (AMARE [21]) [%] | also measured
CCOC(=O)COc1nn(-c2cnccn2)c(-c2cccc(F)c2)c1Br [Example I-02] | 100 | 100 | 90 | 90 | 90 | 100 | 100 | 100 | 90 | 90 | 100 | 100 | Post-emergence action against VIOTR in % (VIOTR [2]): 80%; Post-emergence action against ALOMY in % (ALOMY [3]; Dosage 320 g/ha): 80%; Pre-emergence action against DIGSA in % (DIGSA [5]): 90%; Post-emergence action against STEME in % (STEME [6]): 80%; Post-emergence action against ECHCG in % (ECHCG [8]; Dosage 320 g/ha): 80%; Post-emergence action against MATIN in % (MATIN [10]): 80%; Post-emergence action against VERPE in % (VERPE [12]): 80%; Post-emergence action against PHBPU in % (PHBPU [14]; dosage 320 g/ha): 90%; Post-emergence action against AMARE in % (AMARE [18]): 80%
COCCOC(=O)COc1nn(-c2cnccn2)c(-c2ccc(F)nc2)c1Br [Example I-68] | 100 | 90 | 100 | 100 | 100 | 100 | 100 | 100 | 90 | 90 | 100 | 100 | Pre-emergence action against AVEFA in % (AVEFA): 90%; Post-emergence action against ALOMY in % (ALOMY [3]; Dosage 80 g/ha): 80%; Pre-emergence action against VIOTR in % (VIOTR [22]): 90%; Pre-emergence action at 1280 g/ha against DIGSA in % (DIGSA [23]): 100%; Pre-emergence action against ECHCG in % (ECHCG [24]): 90%; Post-emergence action against ECHCG in % (ECHCG [8]; Dosage 80 g/ha): 80%; Pre-emergence action against SETVI in % (SETVI): 100%; Post-emergence action at 1280 g/ha against DIGSA in % (DIGSA [25]): 100%; Post-emergence action at 1280 g/ha against ABUTH in % (ABUTH): 100%; Post-emergence action against PHBPU in % (PHBPU [14]; dosage 80 g/ha): 80%; Pre-emergence action against PHBPU in % (PHBPU [26]): 80%; Pre-emergence action against ALOMY in % (ALOMY [27]): 100%; Pre-emergence action against LOLRI in % (LOLRI): 80%
